{
  "source": "patent US6977269B1",
  "about": "“Method of improving animal tissue quality” (Pioneer Hi-Bred International, Inc, priority 2001, dated 2005)",
  "origin": "cited, not measured here",
  "key": {"[1]": {"settings": "compared with gamma-tocopherol; cited from earlier work"}, "[2]": {"design": "unit not given here", "settings": "cited from earlier work"}},
  "note": "Where two headings read alike, the source gives them in different places.",
  "data": [
    {"molecule": "Cc1c(O)cc2c(c1C)OC(C)(C(=O)O)CC2", "note": "(centres unmarked) [6-hydroxy-2,7,8-trimethylchroman-2-carboxylic acid]", "values": [
      {"measurement": "water solubility", "setting": "[1]", "result": "more water soluble than gamma-tocopherol"}
    ]},
    {"molecule": "vitamin E", "values": [
      {"measurement": "tissue level", "setting": "[2]; 400 IU/KG per steer daily for 180 days", "result": 3.3},
      {"measurement": "tissue level", "setting": "[2]; 500 IU/KG per steer daily for 126 days", "result": 2.5},
      {"measurement": "tissue level", "setting": "[2]; 1300 IU/KG per steer daily for 44 days", "result": 3.3},
      {"measurement": "tissue level", "setting": "[2]; 2000 IU/KG per steer daily for 100 days", "result": 6.1}
    ]}
  ]
}
